# Tested on: HOP-62 complex spheroids with HUVEC/MSC, viability
# Assay: Anticancer human tumor HOP-62 cell line growth inhibition [RAS];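 note: spheroids exposed to agents for seven days before readout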;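 for viability, T/C: 100% = DMSO vehicle control viability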
# Details: for IC50: curve of first compound; for viability, T/C: stronger effect = lower value
# How it was run: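 Tumour cells grown as complex spheroids with HUVEC endothelial cells and mesenchymal stem cells, treated with RAS pathway inhibitor combinations. Each agent spans half-log steps from near clinical Cmax, or 10 microM where Cmax is unknown.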
# [1] = second compound 0.000949 µM, first compound 0.0316 µM
# [2] = second compound 0.000949 µM, first compound 0.1 µM
# [3] = second compound 0.000949 µM, first compound 0.316 µM
# [4] = second compound 0.000949 µM, first compound 1 µM
# [5] = second compound 0.003 µM, first compound 0.0316 µM
# [6] = second compound 0.003 µM, first compound 0.1 µM
# [7] = second compound 0.003 µM, first compound 0.316 µM
# [8] = second compound 0.003 µM, first compound 1 µM
# [9] = second compound 0.00949 µM, first compound 0.0316 µM
# [10] = second compound 0.00949 µM, first compound 0.1 µM
# [11] = second compound 0.00949 µM, first compound 0.316 µM
# [12] = second compound 0.00949 µM, first compound 1 µM
# [13] = second compound 0.03 µM, first compound 0.0316 µM
# [14] = second compound 0.03 µM, first compound 0.1 µM
# [15] = second compound 0.03 µM, first compound 0.316 µM
# [16] = second compound 0.03 µM, first compound 1 µM
# [17] = second compound 0.0949 µM, first compound 0.0316 µM
# [18] = second compound 0.0949 µM, first compound 0.1 µM
# [19] = second compound 0.0949 µM, first compound 0.316 µM
# [20] = second compound 0.0949 µM, first compound 1 µM
# [21] = second compound 0.3 µM, first compound 0.0316 µM
# [22] = second compound 0.3 µM, first compound 0.1 µM
# [23] = second compound 0.3 µM, first compound 0.316 µM
# [24] = second compound 0.3 µM, first compound 1 µM
compound,measurement,setting,value
CCN1CCN(Cc2ccc(Nc3ncc(F)c(-c4cc(F)c5nc(C)n(C(C)C)c5c4)n3)nc2)CC1 + CCn1c(-c2cc(N3CCN(C)CC3)cnc2C(C)OC)c2c3cc(ccc31)-c1csc(n1)CC(NC(=O)C1CC1C)C(=O)N1CCCC(N1)C(=O)OCC(C)(C)C2,IC50,second compound 0.000949 µM,> 1000 nM
same,IC50,second compound 0.003 µM,> 1000 nM
same,IC50,second compound 0.00949 µM,> 1000 nM
same,IC50,second compound 0.03 µM,70.4 nM
same,IC50,second compound 0.0949 µM,< 3.16 nM
same,IC50,second compound 0.3 µM,< 3.16 nM
same,"viability, T/C","second compound 0.000949 µM, first compound 0.00316 µM",121%
same,"viability, T/C","second compound 0.000949 µM, first compound 0.01 µM",117%
same,"viability, T/C",[1],85.5%
same,"viability, T/C",[2],109%
same,"viability, T/C",[3],114%
same,"viability, T/C",[4],87.8%
same,"viability, T/C","second compound 0.003 µM, first compound 0.00316 µM",97.9%
same,"viability, T/C","second compound 0.003 µM, first compound 0.01 µM",81.7%
same,"viability, T/C",[5],78.2%
same,"viability, T/C",[6],90.4%
same,"viability, T/C",[7],104%
same,"viability, T/C",[8],62.6%
same,"viability, T/C","second compound 0.00949 µM, first compound 0.00316 µM",70.7%
same,"viability, T/C","second compound 0.00949 µM, first compound 0.01 µM",57.9%
same,"viability, T/C",[9],68.2%
same,"viability, T/C",[10],74.3%
same,"viability, T/C",[11],57.3%
same,"viability, T/C",[12],50.8%
same,"viability, T/C","second compound 0.03 µM, first compound 0.00316 µM",52.8%
same,"viability, T/C","second compound 0.03 µM, first compound 0.01 µM",52.4%
same,"viability, T/C",[13],51.9%
same,"viability, T/C",[14],49%
same,"viability, T/C",[15],32.6%
same,"viability, T/C",[16],50.4%
same,"viability, T/C","second compound 0.0949 µM, first compound 0.00316 µM",38.4%
same,"viability, T/C","second compound 0.0949 µM, first compound 0.01 µM",42.8%
same,"viability, T/C",[17],39.2%
same,"viability, T/C",[18],32.4%
same,"viability, T/C",[19],32.6%
same,"viability, T/C",[20],47%
same,"viability, T/C","second compound 0.3 µM, first compound 0.00316 µM",36.6%
same,"viability, T/C","second compound 0.3 µM, first compound 0.01 µM",37.1%
same,"viability, T/C",[21],35.2%
same,"viability, T/C",[22],33.4%
same,"viability, T/C",[23],40.7%
same,"viability, T/C",[24],45.3%
C[C@@H](NC(=O)c1ncnc(N)c1Cl)c1ncc(C(=O)Nc2cc(C(F)(F)F)c(Cl)cn2)s1 + CCn1c(-c2cc(N3CCN(C)CC3)cnc2C(C)OC)c2c3cc(ccc31)-c1csc(n1)CC(NC(=O)C1CC1C)C(=O)N1CCCC(N1)C(=O)OCC(C)(C)C2,IC50,second compound 0.000949 µM,> 10000 nM
same,IC50,second compound 0.003 µM,> 10000 nM
same,IC50,second compound 0.00949 µM,> 10000 nM
same,IC50,second compound 0.03 µM,> 10000 nM
same,IC50,second compound 0.0949 µM,342 nM
same,IC50,second compound 0.3 µM,< 31.6 nM
same,"viability, T/C",[1],111%
same,"viability, T/C",[2],119%
same,"viability, T/C",[3],93.4%
same,"viability, T/C",[4],115%
same,"viability, T/C","second compound 0.000949 µM, first compound 3.16 µM",114%
same,"viability, T/C","second compound 0.000949 µM, first compound 10 µM",74.6%
same,"viability, T/C",[5],107%
same,"viability, T/C",[6],101%
same,"viability, T/C",[7],96.7%
same,"viability, T/C",[8],104%
same,"viability, T/C","second compound 0.003 µM, first compound 3.16 µM",94.7%
same,"viability, T/C","second compound 0.003 µM, first compound 10 µM",60.6%
same,"viability, T/C",[9],80.9%
same,"viability, T/C",[10],99.5%
same,"viability, T/C",[11],76.4%
same,"viability, T/C",[12],83.7%
same,"viability, T/C","second compound 0.00949 µM, first compound 3.16 µM",75.9%
same,"viability, T/C","second compound 0.00949 µM, first compound 10 µM",51.3%
same,"viability, T/C",[13],65.9%
same,"viability, T/C",[14],56.7%
same,"viability, T/C",[15],62.1%
same,"viability, T/C",[16],66.4%
same,"viability, T/C","second compound 0.03 µM, first compound 3.16 µM",47.8%
same,"viability, T/C","second compound 0.03 µM, first compound 10 µM",57%
same,"viability, T/C",[17],46.9%
same,"viability, T/C",[18],56.4%
same,"viability, T/C",[19],48.2%
same,"viability, T/C",[20],54.4%
same,"viability, T/C","second compound 0.0949 µM, first compound 3.16 µM",38.6%
same,"viability, T/C","second compound 0.0949 µM, first compound 10 µM",55%
same,"viability, T/C",[21],47.7%
same,"viability, T/C",[22],49.6%
same,"viability, T/C",[23],43.9%
same,"viability, T/C",[24],41.3%
same,"viability, T/C","second compound 0.3 µM, first compound 3.16 µM",45.4%
same,"viability, T/C","second compound 0.3 µM, first compound 10 µM",47.3%

# Reference: PubChem BioAssay AID2060892 (Molecular Pharmacology Branch, DTP, NCI, 2025)
